Tested on: acid secretion in isolated rabbit gastric glands
Assay: Acid secretion inhibition in isolated rabbit gastric glands
Type: cell-based
Settings: Oryctolagus cuniculus, in vitro, read-out: IC50, inhibiting effect on acid secretion in vitro
Experimental: Acid Secretion Inhibition in Isolated Rabbit Gastric Glands
Inhibiting effect on acid secretion in vitro in isolated rabbit gastric glands was measured as described by Berglindh et al. (1976) Acta Physiol. Scand. 97, 401-414.

SMILES	IC50
Cc1nc2c(OCc3ccccc3)cccc2[nH]1 [Compound (B), 4-benzyloxy-2-methyl benzimidazole]	7.8 µM
Cc1nc2c(NCc3ccccc3)cccc2[nH]1 [Compound (A), 4-benzylamino-2-methylbenzimidazole]	12.9 µM
